{"source": "patent US20120237482A1", "about": "“METHODS FOR TREATMENT OF NEUROLOGICAL DISORDERS BY MODULATION OF MICROGLIAL ACTIVATION” (priority 2011, published 2012)", "test": "Case report: with autism given ibuprofen for children during a 7-day fever", "assay_type": "in vivo, human", "conditions": "one child, ibuprofen about 30-40 mg/kg throughout 7 days", "text": "Subject […] was born […], and developed normally until reaching […] (the “regression time”). […] The […] developed autistic symptoms after the regression time, such as ceasing to respond to their name and losing the skills they had attained so far as their neurological health progressively deteriorated. At or about the same time of the regression time, the […] also developed other medical problems including Vitiligo. After an evaluation, a therapist from the Early Child Intervention Program advised the parents that the child had red flags for autism. Following a viral and bacterial infection […], the […]'s autistic symptoms became severe. The […] was officially diagnosed with autism by a developmental pediatrician, and qualified for the Preschool Program for Children With Disabilities (PPCD). While in the PPCD program, the […] was evaluated by a speech therapist who diagnosed them with severe speech impairments. A video of the child showing severe autistic symptoms is available at http://www.youtube.com/watch?v=GbEeNJgaIQQ. When the child turned […] they developed another viral infection and developed a high fever that lasted over 7 days. […] They were more aware, calm and was saying more words. […] Gastrointestinal problems caused by the ibuprofen soon surfaced, however. […]", "data": [{"smiles": "CC(C)Cc1ccc(C(C)C(=O)O)cc1", "note": "(centres unmarked) [ibuprofen]", "values": [{"measurement": "autistic symptoms while under ibuprofen", "setting": "autism, viral infection with fever", "result": "autistic symptoms decreased"}, {"measurement": "gastrointestinal side effects of ibuprofen", "setting": "little food intake", "result": "gastrointestinal lesions and ulcers caused by the ibuprofen"}]}]}
